Measured values: patent publication US12428395B2, “Heterocyclic compounds as kinase inhibitor and uses thereof” (SPEROGENIX THERAPEUTICS LIMITED, priority 2019, dated 2025)

How the values were obtained:
CHK-1 kinase = CHK-1 kinase (Homo sapiens (Human), UniProt O14757); experiment: CHK-1 Kinase Assay (Z-LYTE based TR-FRET); assay type: biochemical; conditions: for inhibition at 1 µM: 1 μM compound, read-out: % Inhibition of CHK-1 enzyme activity @ 1 μM; for inhibition at 5 µM: 5 μM compound, read-out: % Inhibition of CHK-1 enzyme activity @ 5 μM; for inhibition at 0.1 µM: 0.1 μM compound, read-out: % Inhibition of CHK-1 enzyme activity @ 0.1 μM
Sequence of CHK-1 kinase (O14757 whole entry): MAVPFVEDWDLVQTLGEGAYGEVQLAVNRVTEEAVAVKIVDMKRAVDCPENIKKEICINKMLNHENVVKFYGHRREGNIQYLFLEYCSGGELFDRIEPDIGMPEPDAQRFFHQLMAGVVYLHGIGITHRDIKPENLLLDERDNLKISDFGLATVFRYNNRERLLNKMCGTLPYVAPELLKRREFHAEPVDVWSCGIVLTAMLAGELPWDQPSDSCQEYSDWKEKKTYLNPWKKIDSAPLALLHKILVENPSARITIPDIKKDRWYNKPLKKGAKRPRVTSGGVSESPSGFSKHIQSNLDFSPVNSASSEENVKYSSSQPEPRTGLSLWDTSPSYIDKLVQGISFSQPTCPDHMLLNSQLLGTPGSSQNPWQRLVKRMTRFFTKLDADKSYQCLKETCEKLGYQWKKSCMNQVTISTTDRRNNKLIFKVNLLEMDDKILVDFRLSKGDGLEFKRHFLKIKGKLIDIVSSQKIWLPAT
Procedure: IC50 values of compounds for inhibition of CHK-1 kinase or percent inhibition at defined concentrations were determined by Z-LYTE™ based TR-FRET assay. Kinase reactions were performed in a 10 μL volume in low-volume 384-well plates. The concentration of substrate (Ser Thr 19) was maintained at 2 μM in the assay, and the kinase reaction buffer consisted of 50 mM HEPES pH 7.5, 0.01% BRIJ-35, 10 mM MgCl2, 1 mM EGTA, 2 mM DTT. Serially diluted compounds (3-fold) in DMSO (0.5% in final reaction) were incubated with cocktail of CHK-1 kinase (5 ng/ml; Cat #P3040, ThermoFisher), substrate Ser Thr 19, (2 μM; Cat #PV4529, ThermoFisher), ATP (53 μM; Cat #PV3227, ThermoFisher) and buffer. Kinase reactions were allowed to proceed for 1 hour at room temperature after which 5 μL of a 1:256 dilution of Development Reagent A was added. The plate was allowed to incubate at room temperature for 60 minutes before being read on a BMG Pherastar plate reader using the Z-LYTE™ filter block for Z-LYTE™ TR-FRET. The resulting TR-FRET emission ratio was used to calculate percent inhibition by normalizing with the control using the following formula: — [% Inhibition=1−{(% Phosphorylationsample/% Phosphorylationcontrol (0% Inhibition)}·100] For calculation of IC50, the percent inhibition obtained was plotted against the concentration of inhibitor, and the data was fit to a sigmoidal dose-response curve with a variable slope. The IC50 was calculated from the curve.

MiaPaCa-2 = experiment: Cell viability assay (resazurin), MiaPaCa-2; assay type: cell-based; conditions: Homo sapiens, MIA PaCa-2; MiaPaCa-2 pancreatic cancer cells
Procedure: (§1) Protocol for Cell Viability Assay in Different Cell Lines for CHK-1 Inhibitors:
(§2) Cells were allowed to grow at 37° C. for 24 hr (adherent cells) in 5% CO2 (culture conditions) in a Nuaire incubator (humidified). Following 24 hr (adherent cells), serially diluted compounds (100 μl) were added to the culture plate (immediately after plating in case of suspension cells) and the cultures were further incubated in culture conditions for 72-144 hr depending on the cell type. Experiment was terminated at the completion of respective incubation with drug by replacing the medium with 100 μl of 1 mM of resazurin (R7017; Sigma) prepared in culture medium and the plates were further incubated in culture conditions for 4 hr. In case of 144 hr incubation with the drug, the drug was replenished once with fresh medium after 72 hr. Fluorescence was then measured using a multimodal plate reader (Biotek Synergy Neo) at an excitation wavelength of 535 nm and emission wavelength of 590 nm to obtain relative fluorescence units. Data analysis was done by subtracting the background fluorescence (only medium blank) value from each reading and then normalizing with the vehicle control (DMSO treated cells) to obtain percent survival/proliferation. Percent survival at different doses was used to calculate IC50 by fitting the curve to the “four-parameter variable slope logistic model” using Prism Graph Pad.

THP1 = experiment: Cell viability assay (resazurin), THP1; assay type: cell-based; conditions: Homo sapiens, THP-1; THP1 peripheral blood cells
Procedure: as §1, §2

AsPC-1 = experiment: Cell viability assay (resazurin), AsPC-1; assay type: cell-based; conditions: Homo sapiens, ASPC1; AsPC-1 pancreatic cancer cells
Procedure: as §1, §2

| SMILES | inhibition at 1 µM (CHK-1 kinase) | inhibition at 5 µM (CHK-1 kinase) | IC50 (CHK-1 kinase) | inhibition at 0.1 µM (CHK-1 kinase) | IC50 (MiaPaCa-2) | IC50 (THP1) | IC50 (AsPC-1) |
| --- | --- | --- | --- | --- | --- | --- | --- |
| Cn1cc(Nc2cc(NCC3CNCCO3)c(-c3ccccc3)nn2)cn1 (centres unmarked) [1.4, N3-(1-methyl-1H-pyrazol-4-yl)-N5-(morpholin-2-ylmethyl)-6-phenylpyridazine-3,5-diamine] | 3% | 5% |  |  |  |  |  |
| CC(C)(C)OC(=O)N1CCOC(CNc2cc(Nc3cnc(C#N)cn3)nnc2C(F)(F)F)C1 (centres unmarked) [1.5, tert-butyl 2-((6-(5-cyanopyrazin-2-ylamino)-3-(trifluoromethyl)pyridazin-4-ylamino)methyl)morpholine-4-carboxylate] |  |  | > 10 µM |  |  |  |  |
| N#Cc1cnc(Nc2cc(NCC3CCNCC3)c(C(F)(F)F)nn2)cn1 [1.8, 4-((6-(5-cyanopyrazin-2-ylamino)-3-(trifluoromethyl)pyridazin-4-ylamino)methyl)piperidinium 2,2,2-trifluoroacetate] |  |  | 5.81 µM |  |  |  |  |
| N#Cc1cnc(Nc2cc(OCC3CNCCO3)cnn2)cn1 (centres unmarked) [1.9, 5-(5-(morpholin-2-ylmethoxy)pyridazin-3-ylamino)pyrazine-2-carbonitrile] |  |  | > 10 µM |  |  |  |  |
| CN1CCC(CNc2cnnc(Nc3cnc(C#N)cn3)c2)CC1 [1.10, 5-(5-((1-methylpiperidin-4-yl)methylamino)pyridazin-3-ylamino)pyrazine-2-carbonitrile] | 3% | 15% |  | 8% |  |  |  |
| Cn1ccc(-c2nnc(Nc3cnc(C#N)cn3)cc2OCC2CNCCO2)n1 (centres unmarked) [1.13, 5-(6-(1-methyl-1H-pyrazol-3-yl)-5-(morpholin-2-ylmethoxy)pyridazin-3-ylamino)pyrazine-2-carbonitrile] | 9% | 11% |  | 9% |  |  |  |
| Cc1nnc(Nc2cnc(C#N)cn2)cc1NCC1CNCCO1 (centres unmarked) [1.14, 5-(6-methyl-5-(morpholin-2-ylmethylamino)pyridazin-3-ylamino)pyrazine-2-carbonitrile] | 15% | 45% |  | 2% |  |  |  |
| Cc1nnc(Nc2cnc(C#N)cn2)cc1NCC1CCNCC1 [1.15, 5-(6-methyl-5-(piperidin-4-ylmethylamino)pyridazin-3-ylamino)pyrazine-2-carbonitrile] | 8% | 23% |  | 7% |  |  |  |
| N#Cc1cnc(Nc2cc(NCC3CNCCO3)c(C3CC3)nn2)cn1 (centres unmarked) [1.17, 5-(6-cyclopropyl-5-(morpholin-2-ylmethylamino)pyridazin-3-ylamino)pyrazine-2-carbonitrile] | 12% | 41% |  | 3% |  |  |  |
| N#Cc1cnc(Nc2cc(NCC3CCNCC3)c(C3CC3)nn2)cn1 [1.18, 5-(6-cyclopropyl-5-(piperidin-4-ylmethylamino)pyridazin-3-ylamino)pyrazine-2-carbonitrile] | 24% | 59% |  | 6% |  |  |  |
| CNC(=O)c1nnc(Nc2cnc(C#N)cn2)cc1NCC1CCN(C)CC1 [1.19, 6-(5-cyanopyrazin-2-ylamino)-N-methyl-4-((1-methylpiperidin-4-yl)methylamino)pyridazine-3-carboxamide] | 90% | 99% |  | 49% | 26.2 µM | 13.1 µM | 8.45 µM |
| CN1CCC(Nc2cc(Nc3cnc(C#N)cn3)nnc2C(N)=O)CC1 [1.20, 6-(5-cyanopyrazin-2-ylamino)-4-(1-methylpiperidin-4-ylamino)pyridazine-3-carboxamide] | 93% | 100% |  | 61% | 23.5 µM | 21.8 µM | 11.9 µM |
| N#Cc1cnc(Nc2cc(NCC3CCNCC3)c(-c3ccc(F)cc3)nn2)cn1 [1.21, 5-(6-(4-fluorophenyl)-5-(piperidin-4-ylmethylamino)pyridazin-3-ylamino)pyrazine-2-carbonitrile] | 5% | 33% |  | 3% |  |  |  |
| N#Cc1cnc(Nc2cc(NCC3CCNCC3)c(-c3ccc(Oc4ccccc4)cc3)nn2)cn1 [1.22, 5-(6-(4-phenoxyphenyl)-5-(piperidin-4-ylmethylamino)pyridazin-3-ylamino)pyrazine-2-carbonitrile] | 27% | 65% |  | 8% |  |  |  |
| COc1ccc(-c2nnc(Nc3cnc(C#N)cn3)cc2NCC2CCNCC2)cc1 [1.23, 5-(6-(4-methoxyphenyl)-5-(piperidin-4-ylmethylamino)pyridazin-3-ylamino)pyrazine-2-carbonitrile] | 18% | 41% |  | 7% |  |  |  |
| N#Cc1cnc(Nc2cc(NCC3CCNCC3)c(-c3cccc4[nH]ccc34)nn2)cn1 [1.24, 5-(6-(1H-indol-4-yl)-5-(piperidin-4-ylmethylamino)pyridazin-3-ylamino)pyrazine-2-carbonitrile] | 2% | 34% |  | 2% |  |  |  |
| N#Cc1cnc(Nc2cc(NCC3CCNCC3)c(-c3cccc(N4CCCCC4)c3)nn2)cn1 [1.25, 5-(6-(3-(piperidin-1-yl)phenyl)-5-(piperidin-4-ylmethylamino)pyridazin-3-ylamino)pyrazine-2-carbonitrile] | 10% | 42% |  | 8% |  |  |  |
| COc1cccc(-c2nnc(Nc3cnc(C#N)cn3)cc2NCC2CCNCC2)c1 [1.26, 5-(6-(3-methoxyphenyl)-5-(piperidin-4-ylmethylamino)pyridazin-3-ylamino)pyrazine-2-carbonitrile] | 9% | 26% |  | 0% |  |  |  |
| N#Cc1cnc(Nc2cc(NCC3CCNCC3)c(-c3ccc(CO)cc3)nn2)cn1 [1.27, 5-(6-(4-(hydroxymethyl)phenyl)-5-(piperidin-4-ylmethylamino)pyridazin-3-ylamino)pyrazine-2-carbonitrile] | 8% | 34% |  | 0% |  |  |  |
| Cn1ccc(-c2nnc(Nc3cnc(C#N)cn3)cc2NCC2CCNCC2)n1 [1.28, 5-(6-(1-methyl-1H-pyrazol-3-yl)-5-(piperidin-4-ylmethylamino)pyridazin-3-ylamino)pyrazine-2-carbonitrile] | 48% | 86% |  | 13% |  |  |  |
| N#Cc1cnc(Nc2cc(NCC3CCOCC3)c(C(N)=O)nn2)cn1 [1.29, 6-(5-cyanopyrazin-2-ylamino)-4-((tetrahydro-2H-pyran-4-yl)methylamino)pyridazine-3-carboxamide] | 60% | 93% |  | 19% |  |  |  |
| CNC(=O)c1nnc(Nc2cnc(C#N)cn2)cc1NCC1CCOCC1 [1.30, 6-(5-cyanopyrazin-2-ylamino)-N-methyl-4-((tetrahydro-2H-pyran-4-yl)methylamino)pyridazine-3-carboxamide] | 78% | 97% |  | 28% |  |  |  |
| CC(C)Oc1nnc(Nc2cnc(C#N)cn2)cc1NCC1CCNCC1 [1.31, 5-(6-isopropoxy-5-(piperidin-4-ylmethylamino)pyridazin-3-ylamino)pyrazine-2-carbonitrile] | 11% | 25% |  | 0% |  |  |  |
| CN(C)C(=O)c1nnc(Nc2cnc(C#N)cn2)cc1NCC1CCNCC1 [1.32, 6-(5-cyanopyrazin-2-ylamino)-N,N-dimethyl-4-(piperidin-4-ylmethylamino)pyridazine-3-carboxamide] | 3% | 15% |  | 3% |  |  |  |
| N#Cc1cnc(Nc2cc(NCC3CCNCC3)c(OCC(F)(F)F)nn2)cn1 [1.33, 5-(5-(piperidin-4-ylmethylamino)-6-(2,2,2-trifluoroethoxy)pyridazin-3-ylamino)pyrazine-2-carbonitrile] | 35% | 75% |  | 10% |  |  |  |
